The source of these data is patent US7745450B2, “Pyrazolo[4,3-d]pyrimidines, processes for their preparation and methods for therapy” (Institute of Experimental Botany, priority 2002, dated 2010).

The target of assay [1] is cdk1/cyclin B (CDC2) (Homo sapiens, UniProt P06493). Briefly: CDK inhibition assay, cdk1/cyclin B (CDC2) kinase, histone phosphorylation. Type of assay: biochemical. The procedure:
Selected compounds were tested for cdk1/cyclin B and cdk2/cyclin E inhibitory activity to determine the basic relationships between their interaction energy of docked complex and the inhibitory activity. Cdk2/cyclin E complex was produced in SIP insect cells co-infected with appropriate baculoviral construct. The cells were harvested 70 hours post infection in lysis buffer (50 mM Tris 7.4 pH, 150 mM NaCl, 5 mM EDTA, 20 mM NaF, 1% Tween 20, protease inhibitors) for 30 min on ice and the soluble fraction was recovered by centrifugation at 14.000 g for 10 min. The protein extract was stored at −80° C. until use. The final point test system for kinase activity measurement was used to carry out experiments on the kinetics under linear conditions. The assay mixture contained 1 mg/ml histone (Sigma Type III-S), 15 μM ATP, 0.2 μCi [γ-^32P] ATP and tested compound in a final volume of 20 μl, all in reaction buffer: 50 mM Hepes 7.4 pH, 10 mM MgCl2, 5 mM EGTA, 10 mM 2-glycerolphosphate, 1 mM NaF, 1 mM DTT and protease inhibitors. […] The measurement of kinase inhibition employed the digital imaging analyzer BAS 1800. The kinase activity was expressed as a percentage of maximum activity and the IC50 value was determined by graphic analysis. The kinase activity is expressed as a percentage of maximum activity, the apparent inhibition constants are determined by graphic analysis from dose-response curves presented on FIG. 1.

In assay [2] the target is IκB-α kinase. Briefly: IκB-α kinase inhibition, in vitro kinase assay. The assay is classed as biochemical.
Assay [3] deals with CEM (human lymphoblastoid leukemia). In words: In vitro cytotoxic activity, Calcein AM. The assay is classed as cell-based. The settings on record: Homo sapiens, 72 h, three days. The method, then: We have been using the following cell lines: HELA (human cervical carcinoma), MCF7 (human breast adenocarcinoma), NIH 3T3 (mouse fibroblasts), HOS (human osteogenic sarcoma), HL 60 (human promyelocytic leukemia), G 361 (human malignant melanoma), K562 (human erythroleukemia), CEM (human lymphoblastoid leukemia). Tested drugs were added to the cell cultures in six different concentration and kept at 37° C. and 5% CO2 for three days. All cell lines were grown in DMEM medium (Gibco BRL) supplemented with 10% (v/v) fetal bovine serum and L-glutamine and maintained at 37° C. in a humidified atmosphere with 5% CO2. 10^4 cells were seeded into each well of 96 well plate, allowed to stabilize for at least 2 h and then tested compounds were added at various concentrations ranging from 200 to 0.2 μM in triplicates. Three days after drug addition Calcein AM solution (Molecular Probes) was added and let to enter the cells for 1 hour. Fluorescence of viable cells was quantified employing Fluoroskan Ascent (Microsystems).

In assay [4] the test system is B16. Briefly: In vitro cytotoxic activity, Calcein AM. The assay is classed as cell-based. The following applies: Mus musculus, B16, 72 h, three days.

cdk1/cyclin B (CDC2), sequence (P06493 whole entry, species assumed): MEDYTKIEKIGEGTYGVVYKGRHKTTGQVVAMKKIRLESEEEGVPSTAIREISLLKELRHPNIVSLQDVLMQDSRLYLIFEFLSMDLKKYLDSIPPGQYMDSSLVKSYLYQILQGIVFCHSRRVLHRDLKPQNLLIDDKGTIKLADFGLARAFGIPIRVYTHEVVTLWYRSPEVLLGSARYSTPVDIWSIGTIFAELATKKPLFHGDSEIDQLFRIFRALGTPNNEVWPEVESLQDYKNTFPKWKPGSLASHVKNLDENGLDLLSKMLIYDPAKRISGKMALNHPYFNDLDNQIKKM
cdk1/cyclin B (CDC2), sequence (P14635 whole entry partner, species assumed): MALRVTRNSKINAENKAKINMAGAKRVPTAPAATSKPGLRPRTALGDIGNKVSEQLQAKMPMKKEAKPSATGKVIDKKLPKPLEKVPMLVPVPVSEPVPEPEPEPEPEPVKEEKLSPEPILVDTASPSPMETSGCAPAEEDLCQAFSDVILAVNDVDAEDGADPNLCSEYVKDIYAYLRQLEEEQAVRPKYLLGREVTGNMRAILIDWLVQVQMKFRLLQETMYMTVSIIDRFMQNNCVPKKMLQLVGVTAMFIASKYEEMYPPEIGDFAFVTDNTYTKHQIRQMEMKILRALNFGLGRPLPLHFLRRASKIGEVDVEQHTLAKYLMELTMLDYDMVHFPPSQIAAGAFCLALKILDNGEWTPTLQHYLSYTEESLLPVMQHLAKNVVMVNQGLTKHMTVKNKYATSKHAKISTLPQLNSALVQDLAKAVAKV

Regarding `Cc1n[nH]c2c(Nc3cc(N)cc(Cl)c3)nc(NCCO)nc12`, the IC50 amounted to 10 nM in assay [1] and 20 nM in assay [2].
For `CC(=O)Oc1ccccc1CNc1nc(NCCO)nc2c(C)n[nH]c12`, in that order: 500 nM and 1200 nM.
On the same counts, the results for `Cc1n[nH]c2c(NC(CO)c3ccccc3)nc(NCCO)nc12` (racemic) [listing 1 of 2 here] are 200 nM and 400 nM.
As for `CC(C)c1n[nH]c2c(NCc3ccc(Cl)c(N)c3)nc(N[C@@H](CO)C(C)C)nc12`, the GI50 in assay [3] was 2600 nM; in assay [4] it was 4400 nM.
As to `CC(C)c1n[nH]c2c(NCc3c(O)cc(Cl)cc3O)nc(N[C@@H](CO)C(C)C)nc12`, the values for the 50% growth inhibitory concentration (GI50) in assay [3] and in assay [4] were 400 nM and 1200 nM, respectively.
Consider `Cc1n[nH]c2c(Nc3ccc(N)c(Cl)c3)nc(NCCO)nc12`, for which the values for the half-inhibitory concentration (IC50) in assay [1] and in assay [2] were 12 nM and 29 nM, respectively.
For `CC(C)c1n[nH]c2c(Nc3ccc(C(=O)O)c(Cl)c3)nc(N[C@@H](CO)C(C)C)nc12`, the figures for the GI50 in assay [3] and in assay [4] were 7600 nM and 12400 nM, respectively.
On the same counts, the results for `CC(C)c1n[nH]c2c(Nc3ccccc3)nc(N[C@@H](CO)C(C)C)nc12` are 2500 nM and 3600 nM.
Take `COc1cc(O)c(CNc2nc(N[C@@H](CO)C(C)C)nc3c(C(C)C)n[nH]c23)cc1O` [listing 1 of 2 here]: the concentration for half-maximal inhibition (IC50) in assay [1] is 0.6 nM; in assay [2], 1.5 nM.
`CC[C@H](CO)Nc1nc(Nc2ccc(Cl)cc2)c2[nH]nc(C(C)C)c2n1`: the GI50 in assay [3] is 6700 nM; in assay [4], 9500 nM.
Turning to `CC(=O)Oc1cccc(CNc2nc(NCCO)nc3c(C)n[nH]c23)c1`, the values for the half-inhibitory concentration (IC50) in assay [1] and in assay [2] were 400 nM and 1700 nM, respectively.
Consider `COc1cc(O)c(CNc2nc(N[C@@H](CO)C(C)C)nc3c(C(C)C)n[nH]c23)cc1O` [listing 2 of 2 here], for which the figures for the GI50 in assay [3] and in assay [4] were 1700 nM and 2500 nM, respectively.
On the same counts, the results for `CC(C)c1n[nH]c2c(Nc3ccc(Br)cc3)nc(N[C@@H](CO)C(C)C)nc12` are 5800 nM and 11400 nM.
For `CC(C)c1n[nH]c2c(NCc3cccc(O)c3)nc(N[C@@H](CO)C(C)C)nc12`, in that order: 4900 nM and 8500 nM.
Take `CC(C)c1n[nH]c2c(Nc3cccc(Cl)c3)nc(N(CCO)CCO)nc12`: the values for the IC50 in assay [1] and in assay [2] were 90 nM and 190 nM, respectively.
In the case of `CC[C@H](CO)Nc1nc(Nc2ccc(N)c(Cl)c2)c2[nH]nc(C(C)C)c2n1`, the GI50 in assay [3] was 12200 nM; in assay [4] it was 19600 nM.
Turning to `CC(C)c1n[nH]c2c(NCc3ccc(O)c(O)c3)nc(N[C@@H](CO)C(C)C)nc12`, the IC50 came out at 150 nM in assay [1] and 310 nM in assay [2].
On the same counts, the results for `Cc1n[nH]c2c(Nc3ccc(Br)cc3)nc(NCCO)nc12` are 8 nM and 20 nM.
As for `CC[C@H](CO)Nc1nc(N(C)Cc2ccc(O)c(O)c2)c2[nH]nc(C(C)C)c2n1`, the half-inhibitory concentration (IC50) in assay [1] was found to be 230 nM; in assay [2], 510 nM.
For `CC(C)c1n[nH]c2c(Nc3cccc(Cl)c3)nc(NCCCO)nc12`, in that order: 80 nM and 200 nM.
As to `CC[C@H](CO)Nc1nc(NCc2c(O)cc(OC)cc2O)c2[nH]nc(C(C)C)c2n1`, the GI50 in assay [3] is 1800 nM; in assay [4], 3400 nM.
Take `COc1cc(O)c(CNc2nc(NCCO)nc3c(C)n[nH]c23)cc1O`: the IC50 in assay [1] came to 7 nM; in assay [2], 15 nM.
For `Cc1n[nH]c2c(NCc3ccc(Cl)c(N)c3N)nc(NCCO)nc12`, in that order: 600 nM and 700 nM.
As to `CC(C)c1n[nH]c2c(NCc3ccccc3)nc(N(CCO)CCO)nc12`, the IC50 in assay [1] amounted to 400 nM; in assay [2] it was 1100 nM.
Take `Cc1n[nH]c2c(NCc3ccc(Cl)c(O)c3O)nc(NCCO)nc12`: the IC50 worked out at 9 nM in assay [1] and 21 nM in assay [2].
For `Cc1n[nH]c2c(NCc3ccccc3O)nc(NCCO)nc12`, in that order: 20 nM and 50 nM.
Consider `CC(C)c1n[nH]c2c(Nc3ccc(Cl)cc3)nc(N[C@@H](CO)C(C)C)nc12`, for which the 50% growth inhibitory concentration (GI50) is 4100 nM in assay [3] and 5700 nM in assay [4].
As for `Cc1n[nH]c2c(Nc3ccc(C(=O)O)c(Cl)c3)nc(NCCO)nc12`, the half-inhibitory concentration (IC50) worked out at 7 nM in assay [1] and 14 nM in assay [2].
Take `COc1ccc(CNc2nc(N[C@@H](CO)C(C)C)nc3c(C(C)C)n[nH]c23)c(O)c1O` [listing 1 of 2 here]: the GI50 in assay [3] is 600 nM; in assay [4], 2500 nM.
For `CC(=O)Oc1cccc(CNc2nc(N[C@@H](CO)C(C)C)nc3c(C(C)C)n[nH]c23)c1`, in that order: 12500 nM and 14600 nM.
As for `CC(=O)c1ccccc1CNc1nc(NCCO)nc2c(C)n[nH]c12`, the IC50 worked out at 10 nM in assay [1] and 50 nM in assay [2].
On to `CC(C)c1n[nH]c2c(Nc3ccc(Cl)c(C(=O)O)c3)nc(N[C@@H](CO)C(C)C)nc12`, for which the values for the 50% growth inhibitory concentration (GI50) in assay [3] and in assay [4] were 5800 nM and 9100 nM, respectively.
On to `CC[C@H](CO)Nc1nc(NCc2ccccc2O)c2[nH]nc(C(C)C)c2n1`, for which the IC50 in assay [1] was 8 nM; in assay [2], 12 nM.
With `CC(C)c1n[nH]c2c(NCc3cc(O)c(Cl)cc3O)nc(N[C@@H](CO)C(C)C)nc12`, the GI50 in assay [3] is 1300 nM; in assay [4], 2700 nM.
Consider `COc1ccc(CNc2nc(N[C@@H](CO)C(C)C)nc3c(C(C)C)n[nH]c23)c(O)c1O` [listing 2 of 2 here], for which the IC50 in assay [1] turned out to be 0.4 nM; in assay [2] it was 1.2 nM.
For `Cc1n[nH]c2c(NCc3cccc(O)c3)nc(NCCO)nc12`, in that order: 80 nM and 240 nM.
On the same counts, the results for `Cc1n[nH]c2c(NCc3ccccc3)nc(NCCO)nc12` [2-hydroxyethylamino; benzylamino; methyl] are 4000 nM and 9300 nM.
On the same counts, the results for `CC(=O)c1ccccc1CNc1nc(N[C@@H](CO)C(C)C)nc2c(C(C)C)n[nH]c12` are 20 nM and 50 nM.
For `CC(C)c1n[nH]c2c(Nc3ccc(O)c(C(=O)O)c3)nc(N[C@@H](CO)C(C)C)nc12`, the GI50 in assay [3] is 2700 nM; in assay [4] it was 4200 nM.
For `CC(C)c1n[nH]c2c(NCc3ccccc3O)nc(N[C@@H](CO)C(C)C)nc12`, in that order: 6700 nM and 9800 nM.
As to `Cc1n[nH]c2c(NCc3ccc(O)c(O)c3)nc(NCCO)nc12`, the IC50 in assay [1] worked out at 5000 nM; in assay [2] it was 11000 nM.
With `Cc1cccc(CNc2nc(N[C@@H](CO)C(C)C)nc3c(C(C)C)n[nH]c23)c1O`, the GI50 was 1200 nM in assay [3] and 3500 nM in assay [4].
`Cc1n[nH]c2c(Nc3ccc(Cl)cc3)nc(NCCO)nc12`: the 50% inhibitory concentration (IC50) in assay [1] came out at 9 nM; in assay [2], 19 nM.
On to `CC(C)c1n[nH]c2c(Nc3ccc(Cl)c(N)c3)nc(N[C@@H](CO)C(C)C)nc12`, for which the 50% growth inhibitory concentration (GI50) in assay [3] was 2900 nM; in assay [4], 4400 nM.
As to `CC[C@H](CO)Nc1nc(NCc2cccc(C(C)=O)c2)c2[nH]nc(C(C)C)c2n1`, the results for the half-maximal inhibitory concentration (IC50) in assay [1] and in assay [2] were 10 nM and 40 nM, respectively.
For `CC[C@H](CO)Nc1nc(NCc2ccc(OC)c(O)c2O)c2[nH]nc(C(C)C)c2n1`, in that order: 2 nM and 5 nM.
Consider `CC(C)c1n[nH]c2c(NCc3ccc(Cl)c(O)c3O)nc(N[C@@H](CO)C(C)C)nc12`, for which the results for the concentration for 50% growth inhibition (GI50) in assay [3] and in assay [4] were 900 nM and 1400 nM, respectively.
Regarding `CC[C@H](CO)Nc1nc(Nc2ccc(C(=O)O)c(Cl)c2)c2[nH]nc(C(C)C)c2n1`, the GI50 in assay [3] was 7900 nM; in assay [4], 11200 nM.
As to `CC(C)c1n[nH]c2c(Nc3ccc(N)c(Cl)c3)nc(N[C@@H](CO)C(C)C)nc12`, the GI50 in assay [3] is 2500 nM; in assay [4], 4800 nM.
For `CC(C)c1n[nH]c2c(NCc3c(N)cccc3Cl)nc(N[C@@H](CO)C(C)C)nc12`, in that order: 1500 nM and 2500 nM.
Consider `Cc1n[nH]c2c(NC(CO)c3ccccc3)nc(NCCO)nc12` (racemic) [listing 2 of 2 here], for which the GI50 in assay [3] is 8900 nM; in assay [4] it was 9400 nM.
On the same counts, the results for `CC(C)c1n[nH]c2c(NCc3cccc(Cl)c3O)nc(N[C@@H](CO)C(C)C)nc12` are 700 nM and 1100 nM.
For `CC[C@H](CO)Nc1nc(Nc2ccc(Br)cc2)c2[nH]nc(C(C)C)c2n1`, in that order: 6500 nM and 9800 nM.
Consider `CC[C@H](CO)Nc1nc(Nc2ccc(Cl)c(C(=O)O)c2)c2[nH]nc(C(C)C)c2n1`, for which the GI50 in assay [3] is 4500 nM; in assay [4], 5200 nM.
